Data published in PMC2574850 (Cellular signalling, 2008).

Target: T1, PH ([325-451]ASAP1) (Mus musculus, UniProt Q9QWY8)
T1 sequence (Q9QWY8 325-451): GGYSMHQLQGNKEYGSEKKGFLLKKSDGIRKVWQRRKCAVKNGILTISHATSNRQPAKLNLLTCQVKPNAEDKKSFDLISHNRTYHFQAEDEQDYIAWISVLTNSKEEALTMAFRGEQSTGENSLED
Test: isothermal titration calorimetry
Format: binding

Structure (SMILES): O=P(O)(O)O[C@@H]1[C@H](O)[C@H](O)[C@@H](OP(=O)(O)O)[C@H](OP(=O)(O)O)[C@H]1O [IP3]
- Kd: 75 ± 15 µM
